We go through five compounds from ChEMBL document CHEMBL5550098, “Discovery of N-benzylbenzamide-based allosteric inhibitors of Aurora kinase A” (Bioorg Med Chem, 2024).

SMILES strings stand for the structures. ≈ marks a conversion by molar mass, not a printed value. Calls of active or inactive are those of the source. No cut-off for these calls is given here.

Data set [1] has as its system HCT-116. Put plainly: Downregulation of phospho-histone H3 level at Ser10 residue in human HCT-116 cells at 20 uM measured at 48 hrs by Western blot analysis. The format is functional, cell-based. (In general: Immunoblotting shows a protein as a band on a membrane.)
The nature of data set [2]: Permeability of compound at 5 uM by PAMPA assay. The format is ADME. The settings on record: read-out: permeability. On the technique in general: The PAMPA barrier holds no transporters, so it reflects passive diffusion.
The test system of the next data set is PANC-1. Put plainly: Induction of cell cycle arrest in human PANC-1 cells at 100 uM measured after 48 hrs by RNase/PI staining based flow cytometry analysis. The format is functional. (In general: In flow cytometry, cells or beads pass a laser one at a time.)
In data set [3] the test system is HeLa. The experiment in a line: Inhibition of DNA replication during G1 to S transition in nocodazole synchronized human HeLa cells assessed as reduction in Edu content in new synthesized DNA by measuring Edu positive cells at 100 uM measured after 8 hrs by Edu incorporation based flow cytometry analysis (reference value: 19.7%). In kind it is functional. Set-up: scale not given: the % may be the effect or the level left.

A short description of data set [4]: Aqueous solubility of compound at pH 7.4. In kind it is physicochemical.
Data set [5] has as its system HCT-116. Put plainly: Downregulation of phospho-histone H3 level at Ser10 residue in human HCT-116 cells at 20 uM measured at 12 to 24 hrs by Western blot analysis. The format is functional, cell-based. The settings on record: time 12-24 hrs.
For data set [6], the system named is HCT-116. The experiment in a line: Induction of cell cycle arrest at G2/M phase in human HCT-116 cells at 100 uM measured after 48 hrs by RNase/PI staining based flow cytometry analysis. The format is functional.
The test system of data set [7] is HeLa. The experiment in a line: Inhibition of DNA replication during G1 to S transition in nocodazole synchronized human HeLa cells assessed as reduction in Edu content in new synthesized DNA by measuring Edu positive cells at 100 uM measured after 9 hrs by Edu incorporation based flow cytometry analysis (reference value: 16.8%). Set-up: scale not given: the % may be the effect or the level left. The format is functional.

The test system of data set [8] is HeLa. The experiment in a line: Antiproliferative activity against human HeLa cells assessed as inhibition of cell growth incubated for 72 hrs in absence of PHA-767491 by celltiter-glo assay. The format is functional.
Data set [9] relates to HeLa. Put plainly: cells. The settings on record: Homo sapiens, 72 h.
The subject of the next data set is A549. Put plainly: Induction of cell cycle arrest in human A549 cells assessed as G1/S phase transition at 100 uM measured after 48 hrs by RNase/PI staining based flow cytometry analysis. The format is functional.
Data set [10] deals with HT-29. The experiment in a line: Downregulation of phospho-histone H3 level at Ser10 residue in human HT-29 cells at 20 uM measured at 48 hrs by Western blot analysis. The format is functional, cell-based.
Data set [11] relates to HT-29. The experiment in a line: Downregulation of phospho-histone H3 level at Ser10 residue in human HT-29 cells at 20 uM measured at 12 to 24 hrs by Western blot analysis. In kind it is functional, cell-based. Particulars: time 12-24 hrs.
Data set [12] concerns HeLa. The experiment in a line: Induction of cell cycle arrest in human HeLa cells at 100 uM measured after 48 hrs by RNase/PI staining based flow cytometry analysis. In kind it is functional.
The next data set deals with NCI-H358. The experiment in a line: Induction of cell cycle arrest in human NCI-H358 cells assessed as G1/S phase transition at 100 uM measured after 48 hrs by RNase/PI staining based flow cytometry analysis. The format is functional.
For data set [13], the system named is HT-29. Put plainly: Induction of cell cycle arrest at G2/M phase in human HT-29 cells at 100 uM measured after 48 hrs by RNase/PI staining based flow cytometry analysis. In kind it is functional.
For another data set, the target named is T1, Aurora kinase A (Homo sapiens, UniProt O14965).
T1 sequence (O14965 whole entry): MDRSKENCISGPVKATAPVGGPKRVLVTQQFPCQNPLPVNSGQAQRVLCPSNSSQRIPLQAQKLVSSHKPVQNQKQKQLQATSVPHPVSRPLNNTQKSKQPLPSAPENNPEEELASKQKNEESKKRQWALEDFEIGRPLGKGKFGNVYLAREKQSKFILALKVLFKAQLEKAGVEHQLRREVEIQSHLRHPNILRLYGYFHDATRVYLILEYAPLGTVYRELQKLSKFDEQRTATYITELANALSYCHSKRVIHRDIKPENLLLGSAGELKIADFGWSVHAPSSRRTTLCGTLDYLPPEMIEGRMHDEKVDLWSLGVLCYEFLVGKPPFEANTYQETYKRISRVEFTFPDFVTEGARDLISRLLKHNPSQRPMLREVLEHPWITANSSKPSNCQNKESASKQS
The experiment in a line: Allosteric inhibition of AurkA (unknown origin).

For data set [14], the system named is HeLa. Put plainly: Inhibition of DNA replication during G1 to S transition in nocodazole synchronized human HeLa cells assessed as reduction in Edu content in new synthesized DNA by measuring Edu positive cells at 1 uM measured after 8 hrs by Edu incorporation based flow cytometry analysis (reference value: 19.7%). In kind it is functional, cell-based. Further details: scale not given: the % may be the effect or the level left.

The subject of data set [15] is HeLa. Put plainly: Inhibition of DNA replication during G1 to S transition in nocodazole synchronized human HeLa cells assessed as reduction in Edu content in new synthesized DNA by measuring Edu positive cells at 1 uM measured after 9 hrs by Edu incorporation based flow cytometry analysis (reference value: 16.8%). The format is functional, cell-based. Set-up: scale not given: the % may be the effect or the level left.

`O=C(NCc1ccc2c(c1)OCO2)c1cccc(-c2ccncc2)c1`: the result in the data set with HCT-116 [1], in the data set with HCT-116 [6], in the data set on A549, in the data set on HT-29 [10], in the data set on NCI-H358 and in the data set on HT-29 [13] was Active. The Papp at 5 µM in data set [2] was found to be 65.5 ×10⁻⁶ cm/s. Besides, the outcome in the data set on PANC-1, with HCT-116 [5], in the data set with HT-29 [11] and in the data set with HeLa [12] was inactive. Moreover, the Activity came out at 7% with HeLa [3] and 1.6% in the data set with HeLa [7]. For the same compound, the solubility (usually the concentration that dissolves in the medium under given conditions) in data set [4] came to 161 µM (≈ 53.5 µg/mL). Moreover, the results for the concentration for 50% growth inhibition (GI50) in the data set with HeLa [8] and with HeLa [9] were 71.7 µM and 14 µM, respectively.

As to `CC(Oc1ccc2c(c1)c1ccnc3c4ccccc4c(=O)n2c13)C(=O)NCc1ccc2c(c1)OCO2` (stereo unspecified), the concentration for half-maximal inhibition (IC50) (as a rule, the concentration needed to halve the response being measured) on Aurora kinase A was under 20 µM.

In turn, `CC1=C(C(=O)Nc2ccc(F)cc2F)[C@H](c2cccnc2)C2=C(C[C@@H](c3ccccc3)CC2=O)N1` showed an IC50 at Aurora kinase A of under 20 µM.

The compound `COc1ccc(CNC(=O)C(C)Oc2ccc3c(c2)c2ccnc4c5ccccc5c(=O)n3c24)cc1` (stereo unspecified) came in with an IC50 against Aurora kinase A of under 20 µM.

Take `Cc1cc(Nc2cc(N3CCN(C)CC3)nc(Sc3ccc(NC(=O)C4CC4)cc3)n2)n[nH]1`: the figures for the Activity in the data set on HeLa [14] and in the data set on HeLa [15] were 21.7% and 22.1%, respectively.
